# Publication PMC2779488, “Integrating In Silico and In Vitro Analysis of Peptide Binding Affinity to HLA-Cw*0102: A Bioinformatic Approach to the Prediction of New Epitopes” (PLoS ONE, 2009)
# No end group written: not given here.
# Target: HLA-Cw*0102 (Homo sapiens, UniProt P10321, A176E/A330V/A35S/A97T/C350S/D114A/D33F/L171W/L180R/L218V/M285V/M309V/M331V/P208H/Q277E/Q291P/R121W/R243W/R30K/S123C/S140Y/S297R/T329A/T363A/V272M/V319A)
# Experiment: FACS-based MHC stabilisation assay (peptide binding, T2 cells)
# Details: not given
Compound,EC50,pBL50 / binder class as quoted in text,pBL50(exp)
ELIRTVRLI,> 1000 µM,,
VDADDSHFV [V D A D D S H F V],> 1000 µM,,
FPISPIETV,> 1000 µM,,
IVRMYSPTS,> 1000 µM,,
PQSQGVVES,> 1000 µM,,
ILSRSKESV [I L S R S K E S V],,non-binder,
ILRRPTSPV [I L R R P T S P V],7.96 µM,,
ADDSHFVSI [A D D S H F V S I],> 1000 µM,,
CC(C)[C@H](NC(=O)[C@H](C)N)C(=O)N[C@@H](CC(=O)O)C(=O)N[C@@H](C)C(=O)N[C@@H](CC(=O)O)C(=O)N[C@@H](CC(=O)O)C(=O)N[C@@H](CO)C(=O)N[C@@H](Cc1c[nH]cn1)C(=O)N[C@@H](Cc1ccccc1)C(=O)O [A V D A D D S H F],> 1000 µM,,
IVIWGKTPK,> 1000 µM,,
SLEECDSEL [S L E E C D S E L],375 µM,,
NYTSLIHSL,> 1000 µM,,
PVPLQLPPL,3.16 µM,,
ATSPIVPSL [A T S P I V P S L],4.15 µM,,
NCPERIATL,0.201 µM,,
LVSAGIRKV,> 1000 µM,,
"I L S P L T K G I: initial-set nonamer, Table 1 No. 13",,,3.061
NSTWSTEGS,> 1000 µM,,
VIPMFSALS [VIPMFSALS],2.45 µM,,
DADDSHFVS [D A D D S H F V S],> 1000 µM,,
LSPLTKGIL [L S P L T K G I L],3.79 µM,,
LITPKKIKP,> 1000 µM,,
VVPRRKAKI,> 1000 µM,,
KATSPIVPS [K A T S P I V P S],> 1000 µM,,
EQFGNKTIV,> 1000 µM,,

# Same assay, conditions: Table 3 newly-designed peptides; T2 cells, peptide 200-0.04 µM, 16 h 37°C, mAb VP6G3, flow cytometry; read-out: pBL50 (exp) (converted)
row,Compound,EC50
1,ACPERIITL,0.185 µM
2,NCPERIITA,0.257 µM

# Same assay, conditions: Table 4 HIV-1 peptides; T2 cells, peptide 200-0.04 µM, 16 h 37°C, mAb VP6G3, flow cytometry; read-out: pBL50 (exp) (converted)
row,Compound,EC50
1,CAPAGFAIL,0.00987 µM
2,LTEEKIKAL [LTEEKIKAL],5.19 µM
3,LQILAIVAL [LQILAIVAL],0.766 µM
4,RVRQGYSPL,0.0866 µM
5,FQSSMTKIL,0.701 µM
6,IVTRIVELL,1.12 µM
7,LLRWGFTTP,2.05 µM
8,ELQAIYLAL [ELQAIYLAL],1.25 µM

# Same assay, conditions: pBL50(exp)
row,Compound,EC50
1,LPETKFSEL [L P E T K F S E L],6.37 µM
2,NAPERIITL,0.00314 µM
3,KSPLDIVNL,1.91 µM
4,AQPQTTTPL [A Q P Q T T T P L],0.122 µM
5,NCPERIITL,0.0634 µM
6,AAPAYSRAL [A A P A Y S R A L],1.77 µM
7,EQPERYESV,0.132 µM
8,NCPARIITL,0.114 µM
9,ILSPRSESV [I L S P R S E S V],2.62 µM
10,NCPERAITL,0.244 µM
11,ILSRSKESV [I L S R S K E S V],> 1000 µM
12,NCAERIITL,0.434 µM
13,LLTSPDVGL [L L T S P D V G L],11.7 µM
14,CSCC[C@H](NC(=O)[C@H](C)NC(=O)[C@H](CCC(N)=O)NC(=O)[C@H](CO)NC(=O)[C@@H]1CCCN1C(=O)[C@@H](N)CC(C)C)C(=O)N[C@@H](CC(=O)O)C(=O)N[C@@H](CC(=O)O)C(=O)N[C@@H](CC(C)C)C(=O)O [L P S Q A M D D L],> 1000 µM
15,FAPYNKPSL [F A P Y N K P S L],0.611 µM
16,ITPTGTHPL [I T P T G T H P L],0.283 µM
17,WGPGIIWAL [WGPGIIWAL],3.63 µM
18,PLPSQAMDD [P L P S Q A M D D],> 1000 µM
19,NCPEAIITL,0.193 µM
20,LGPEKLQYL,0.151 µM

row,Compound,EC50
1,YMTPSSRPL [Y M T P S S R P L],> 1000 µM
2,LTSPDVGLL [L T S P D V G L L],27.4 µM
3,NCPEGYTSL,0.0724 µM
4,VRPMRQWPL,3.8 µM
5,EAPMWDHWL,0.49 µM
6,YAQPQTTTP [Y A Q P Q T T T P],5.96 µM
7,YMPTASCDL,0.0129 µM
8,ILSPRSKES [I L S P R S K E S],292 µM
9,MQPSRGKTL,0.17 µM
10,TDPWFHRSL,0.339 µM
11,CMPDWLDRL,0.331 µM
12,VAPQLTFGL,0.0162 µM
13,FMPIMKNEV,0.676 µM
14,HNPGIATPV,0.661 µM
15,EFPWVFIEL,0.355 µM
16,NAPWAVTSL [N A P W A V T S L],0.142 µM
17,IPEPAHAYA [I P E P A H A Y A],> 1000 µM
18,LSPRSKESV [L S P R S K E S V],0.91 µM
19,WAPHTDTSL,0.0126 µM
20,QYPKGDAWV,> 1000 µM

row,Compound,EC50
1,ADAEKPFYV [A D A E K P F Y V],> 1000 µM
2,WRPDVNMQL,2.88 µM
3,GADAEKPFY [G A D A E K P F Y],> 1000 µM
4,VAPWNSLSL [V A P W N S L S L],0.703 µM
5,NEPQRIEPL,0.0962 µM
6,CC[C@H](C)[C@H](N)C(=O)N[C@@H](CC(C)C)C(=O)N[C@@H](CCCCN)C(=O)N[C@@H](CCC(=O)O)C(=O)N1CCC[C@H]1C(=O)N[C@H](C(=O)N[C@@H](Cc1cnc[nH]1)C(=O)NCC(=O)N[C@H](C(=O)O)C(C)C)C(C)C [I L K E P V H G V],> 1000 µM
7,HMPDVGCIL,0.178 µM
8,CC(C)C[C@H](NC(=O)[C@H](C)NC(=O)[C@@H]1CCCN1C(=O)[C@H](Cc1ccc(O)cc1)NC(=O)[C@H](CC(N)=O)NC(=O)CNC(=O)[C@@H]1CCCN1C(=O)[C@H](C)NC(=O)[C@@H](N)Cc1ccccc1)C(=O)O [F A P G N Y P A L],0.189 µM
9,LSPPKKKDL [L S P P K K K D L],> 1000 µM
10,PLSPPKKKD [P L S P P K K K D],10.1 µM
11,GIPEPAHAY [G I P E P A H A Y],> 1000 µM
12,LLKLASPEL [L L K L A S P E L],> 1000 µM
13,ILSPSKESV [I L S P S K E S V],11.4 µM
14,SWPMQFDAL [SWPMQFDAL],0.269 µM
15,NCPERIIAL [NCPERIIAL],0.141 µM
16,DLLTSPDVG [D L L T S P D V G],> 1000 µM
17,ECPQGITPV,0.109 µM
18,ILSPRKESV [I L S P R K E S V],17.2 µM
19,HLPETKFSE [H L P E T K F S E],> 1000 µM
20,CAPREPHVV,0.38 µM

# Same assay, conditions: pBL50 / binder class as quoted in text
row,Compound,EC50
1,ILSPSKESV [peptide 17],1 to 31.6 µM
